# Reference: patent publication US20090069324A1, “CHEMICAL INHIBITORS OF BFL-1 AND RELATED METHODS” (The Burnham Institute, priority 2007, published 2009)
# Experiments:
# Bfl-1 = molecular target: T1, Bfl-1 (Homo sapiens, UniProt Q16548); assay: Bfl-1 fluorescence polarization assay (FPA/FP), competition with FITC-Bid BH3 peptide; assay type: binding; conditions: for Bfl-1 FP assay, activity in words: Bfl-1/FITC-Bid
# T1 construct: lacking their C-terminal transmembrane domains (approximately last 20 amino-acids); made in house; host or cells: XL-1 Blue cells (E. coli), pGEX 4T-1
# T1 sequence (Q16548 1-155 limits assumed): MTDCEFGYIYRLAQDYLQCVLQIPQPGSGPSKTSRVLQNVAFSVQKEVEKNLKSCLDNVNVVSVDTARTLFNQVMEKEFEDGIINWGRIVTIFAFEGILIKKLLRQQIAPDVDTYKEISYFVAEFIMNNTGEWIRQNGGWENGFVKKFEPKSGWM
# Description: Fluorescence polarization assays (FPA). To determine the binding affinity of anti-apoptotic Bcl-2 polypeptides to FITC-conjugated Bid BH3 peptide, fluorescence polarization assays (FPAs) were performed according to published procedures (Zhai et al., Biochem. J. 376:229-236 (2003)). […] Fluorescence polarization was measured after 10 min using an Analyst™ AD Assay Detection System (LJL Biosystem, Sunnyvale, Calif.) in phosphate-buffered saline (PBS) (pH 7.4). The IC50 determinations were performed using GraphPad Prism software (GraphPad, Inc., San Diego, Calif.).
# Competition assays. Using the same procedure outlined above, 100 nM of GST-Bfl-1 protein were incubated with the compounds at 50 μM concentration for 30 min. Then, 5 nM of FITC-Bid BH3 peptide was added. Fluorescence polarization was measured after 10 min. […]
# Bcl-2 = molecular target: T2, Bcl-2 (Homo sapiens, UniProt P10415); assay: Bcl-2/FITC-Bim FPA selectivity assay; assay type: binding; conditions: Bcl-2/FITC-Bim complex
# T2 construct: lacking their C-terminal transmembrane domains (approximately last 20 amino-acids); GST (N); made in house; host or cells: XL-1 Blue cells (E. coli), pGEX 4T-1
# Source text: This example illustrates assays for determining the selectivity of chemical inhibitors for Bfl-1. Bfl-1, as with other Bcl-2 family proteins, participates in a very complex and intricate network of interactions with other representatives of the family. Therefore, two selectivity assays involving family members Bcl-2 and Bcl-B were developed.
# For Bcl-2, a FITC-conjugated peptide corresponding to the BH3 domain of Bim was used. For Bcl-B, a FITC-conjugated peptide corresponding to a fragment of the TR3/Nur77 protein shown to bind this member of the Bcl-2 family was used.
# Probe specificity for target or for cell-based/phenotypic assays data can be determined in orthogonal cell-based assay systems that address the pathway of interest. For example, compounds were tested in Bfl-1/FITC-Bid FPA and TR-FRET assays (FIGS. 7A and 7B, respectively), as well as Bcl-2/FITC-Bim FPA (FIG. 7C) and Bcl-B/FITC-TR3-R8 FPA (FIG. 7D) assays. Data represent concentration in μM x-axis) vs % displacement (y-axis).
# Microsomal stability = assay type: in vitro ADME; conditions: rat liver microsomes, 37.5° C.
# Description: (§1) CID-779754 (MLS-0067130) has a metabolic half life of >60 min in the presence of rat liver microsomes when incubated at 37.5° C. (FIG. 6A), with 64% of the compound remaining at 1 hour. The plasma stability of CID-779754 is also good, with 79% remaining after incubating at 37.5° C. for 1 hour in fresh rat plasma (FIG. 6B).
# Plasma stability = assay type: in vitro ADME; conditions: fresh rat plasma, 37.5° C.
# Description: as §1
# PAMPA assay = assay type: in vitro ADME
# Solubility = conditions: aqueous buffer
# Description: Compounds were screened for inhibitory activity of Bfl-1 essentially as described in Example 1, and including a 1 h incubation of Bfl-1 in the presence of compounds and a 4 h incubation after the subsequent addition of the fluorescent probe. […] The assay was screened against the entire NIH small molecule library, which at the time consisted of 65,000 compounds. […] Controls included an “artifact” plate on which a GAPDH assay was performed to check selectivity, and a solubility plate on which a solubility assay was performed to test solubility.
# [1] = system: cord blood derived human mast cells (CBMCs); assay: LDH release cytotoxicity assay; assay type: cell-based
# Description: To investigate whether a Bfl-1 inhibitor is cytotoxic to cord blood derived human mast cells (CBMCs), a […] assay based on the measurement of lactate dehydrogenase (LDH) activity is used. CBMC are cultured with various concentrations of the Bfl-1 inhibitor, and LDH release into the culture supernatant is measured. […] The positive control in FIG. 8 is a control included in the LDH kit. Thus, CID-779754 is not cytotoxic to in vitro developed human mast cells.
# human mast cells = assay: Primary mast cell survival assay (activation-induced survival); assay type: cell-based
# Description: To validate the biological activity of the probe in a cellular readout that is Bfl-1 dependent, CID-779754 was tested in an assay measuring the effect of compounds on primary mast cell survival.
# The effect of a Bfl-1 inhibitor at, for example, 1 μM is tested on CBMCs derived from, for example, 12 different individuals. CBMCs are activated by aggregation of the high-affinity IgE-receptor (FcεRI)±CID-779754. Mast cells are cultured with or without IgE crosslinking (IgECL) agent, without or with Bfl-1 inhibitor. The percentage cell survival upon IgE-receptor activation are compared to cells not activated and the delta survival is calculated. Cell survival is measured by LDH release and data were presented as % difference between cells cultured with or without IgECL.
# T2 sequence (P10415 1-218 limits assumed): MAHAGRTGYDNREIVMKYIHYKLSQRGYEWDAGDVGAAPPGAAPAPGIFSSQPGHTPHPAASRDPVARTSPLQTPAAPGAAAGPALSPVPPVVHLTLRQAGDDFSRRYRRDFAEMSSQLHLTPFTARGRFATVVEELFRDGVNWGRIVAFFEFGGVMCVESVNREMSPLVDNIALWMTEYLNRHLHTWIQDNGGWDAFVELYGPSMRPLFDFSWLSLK
smiles,measurement,setting,value
"CN(C)C1=C(Cl)C(=O)N(c2ccc(Cl)c(Cl)c2)C1=O [CID-779754, 3-chloro-1-(3,4-dichlorophenyl)-4-(dimethylamino)-1H-pyrrole-2,5-dione]","Bfl-1 FP assay, activity in words",Bfl-1,binds reversibly and competes
same,"Bfl-1 FP assay, activity in words",Bfl-1; listed as MLS-0067130,equipotent with CID-1180676
same,IC50,"Bfl-1; Bfl-1 FP IC50 (uM), Tables 3-5",0.46 µM
same,"Competition for binding of a BH3 peptide to Bcl-2, in words",Bcl-2,weak activity
same,compound remaining at 1 hour,Microsomal stability,64%
same,half-life,Microsomal stability; read-out: metabolic half life,> 1 h
same,remaining after incubating for 1 hour,Plasma stability,79%
same,log Pe,PAMPA assay; PAMPA,−4.2
same,predicted human GI absorption,PAMPA assay; correlated from PAMPA log Pe,> 50%
same,solubility,Solubility,≤ 100 µM
same,cytotoxicity (LDH release),"[1]; 0.1-100 μM, n=4 donors",no cytoxicity
same,toxicity to normal human cells,[1]; normal human cells,not toxic to normal human cells
same,effect on activation-induced survival of mast cells,human mast cells,inhibited the activation-induced survival of human mast cells
